This note sets out measurements from patent US20240190821A1, “SULFONAMIDE SUBSTITUTED N-(1H-INDOL-7-YL)BENZENESULFONAMIDES AND USES THEREOF” (Triana Biomedicines, Inc., priority 2021, published 2024).

T1 sequence (Q66K64 whole entry): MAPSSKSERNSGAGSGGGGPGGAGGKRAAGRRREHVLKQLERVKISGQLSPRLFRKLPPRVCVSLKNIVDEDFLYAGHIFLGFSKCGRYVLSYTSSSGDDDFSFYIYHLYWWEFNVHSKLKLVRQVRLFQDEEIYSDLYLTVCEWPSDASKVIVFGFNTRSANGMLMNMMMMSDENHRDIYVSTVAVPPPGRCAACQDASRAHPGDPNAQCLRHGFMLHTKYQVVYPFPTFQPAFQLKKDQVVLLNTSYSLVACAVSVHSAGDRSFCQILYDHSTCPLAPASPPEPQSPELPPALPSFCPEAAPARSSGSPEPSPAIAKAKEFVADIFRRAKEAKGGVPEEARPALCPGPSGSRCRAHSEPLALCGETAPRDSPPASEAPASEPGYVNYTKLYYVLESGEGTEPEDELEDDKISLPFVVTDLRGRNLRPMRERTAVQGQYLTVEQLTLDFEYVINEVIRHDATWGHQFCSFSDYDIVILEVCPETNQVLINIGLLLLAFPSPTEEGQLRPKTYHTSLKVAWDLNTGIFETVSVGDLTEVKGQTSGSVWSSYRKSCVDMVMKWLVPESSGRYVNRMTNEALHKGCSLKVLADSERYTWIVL
T1 sequence (Q14498 250-328 limits assumed): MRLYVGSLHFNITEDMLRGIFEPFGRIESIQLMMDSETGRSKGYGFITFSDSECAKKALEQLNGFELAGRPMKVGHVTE
T1 sequence (Q16531 whole entry partner): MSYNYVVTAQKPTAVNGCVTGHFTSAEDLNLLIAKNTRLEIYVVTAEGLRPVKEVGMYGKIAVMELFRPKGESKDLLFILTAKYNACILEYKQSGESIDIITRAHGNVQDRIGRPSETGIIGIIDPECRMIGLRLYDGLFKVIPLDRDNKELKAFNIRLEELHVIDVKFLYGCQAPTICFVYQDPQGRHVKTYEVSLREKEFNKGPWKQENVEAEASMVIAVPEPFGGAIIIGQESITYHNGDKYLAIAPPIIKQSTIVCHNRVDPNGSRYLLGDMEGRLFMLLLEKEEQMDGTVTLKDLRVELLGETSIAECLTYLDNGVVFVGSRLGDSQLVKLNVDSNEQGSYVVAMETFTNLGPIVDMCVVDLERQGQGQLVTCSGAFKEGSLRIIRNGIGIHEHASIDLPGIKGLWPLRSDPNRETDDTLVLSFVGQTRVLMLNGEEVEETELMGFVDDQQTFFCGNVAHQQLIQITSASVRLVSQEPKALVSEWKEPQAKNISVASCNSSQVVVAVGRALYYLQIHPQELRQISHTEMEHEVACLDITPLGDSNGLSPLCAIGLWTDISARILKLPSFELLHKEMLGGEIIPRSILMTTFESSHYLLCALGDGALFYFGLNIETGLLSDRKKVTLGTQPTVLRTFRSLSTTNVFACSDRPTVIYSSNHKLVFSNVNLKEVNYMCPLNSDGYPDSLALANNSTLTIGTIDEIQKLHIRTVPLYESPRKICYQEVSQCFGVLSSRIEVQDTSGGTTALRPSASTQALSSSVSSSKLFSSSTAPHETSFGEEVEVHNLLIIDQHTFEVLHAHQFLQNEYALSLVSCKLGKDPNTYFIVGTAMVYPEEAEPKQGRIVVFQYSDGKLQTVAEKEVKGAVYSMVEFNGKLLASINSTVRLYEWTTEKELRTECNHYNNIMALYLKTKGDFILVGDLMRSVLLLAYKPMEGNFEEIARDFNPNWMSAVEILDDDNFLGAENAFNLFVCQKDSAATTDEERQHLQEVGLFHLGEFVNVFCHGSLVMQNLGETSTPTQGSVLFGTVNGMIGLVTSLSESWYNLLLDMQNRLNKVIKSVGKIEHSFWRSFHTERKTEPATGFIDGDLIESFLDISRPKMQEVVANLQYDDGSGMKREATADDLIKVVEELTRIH

For the first assay, the target named is DCAF15 (Homo sapiens, UniProt Q66K64). Description: Binary interaction between compounds and DCAF15, HTRF competition assay.
Sequence of DCAF15 (Q66K64 whole entry): as the sequence (Q66K64 whole entry) above
Sequence of DCAF15 (Q16531 whole entry partner): as the sequence (Q16531 whole entry partner) above
Settings: not given
It is filed as binding. Here is the method:
DCAF15 interactions with test compounds were monitored using HTRF competition assays (Cisbio, Bedford, MA). […] These two solutions were mixed and incubated for 15 min at room temperature. 9.8 ul of the tracer solution and 10 ul of the DCAF15/mAb Anti-6His-Eu cryptate Gold mixture were added sequentially to each well in the assay plate. Reaction mixtures with no DCAF15 added were included as […] controls. […] Binding was estimated based on ratiometric analysis and titration curves were generated in GraphPad Prism (7.00, GraphPad, La Jolla, CA).
Take `O=S(=O)(F)c1ccc(S(=O)(=O)Nc2ccc(Cl)c3c(Cl)c[nH]c23)cc1` [Compound 72, 4-(N-(3,4-dichloro-1H-indol-7-yl)sulfamoyl)benzenesulfonyl fluoride]: the IC50 is < 20000 nM.

Still in this assay, the particulars now being: HTRF competition with Alexa Fluor 647 tracer, His-tagged DCAF15 complex; read-out: DCAF15 IC50.
`Cc1ccc(NS(=O)(=O)c2ccc(S(=O)(=O)N3CC4CNCC4C3)cc2)c2[nH]cc(C#N)c12` (stereo not drawn) [Compound 92, N-(3-cyano-4-methyl-1H-indol-7-yl)-4-((hexahydropyrrolo[3,4-c]pyrrol-2(1H)-yl)sulfonyl)benzenesulfonamide]: the IC50 is < 20000 nM.
Regarding `O=S(=O)(Nc1ccc(C2CC2)c2c(Cl)c[nH]c12)c1ccc(S(=O)(=O)N2CCNCC2)cc1` [compound 147], the IC50 was < 100000 nM.
`CCCC1CN(S(=O)(=O)c2ccc(S(=O)(=O)Nc3ccc(Cl)c4c(Cl)c[nH]c34)cc2)CCN1` (stereo not drawn) [compound 110]: the IC50 was < 5000 nM.

The next assay concerns the target T1, DCAF15-RBM39 ternary complex (Homo sapiens, UniProt Q14498+Q66K64).
T1 construct: (RRM2)
Description: Compound-induced DCAF15-RBM39 ternary complex formation, AlphaLISA. It is filed as biochemical.
Settings: not given
The protocol:
Compound-induced DCAF15-RBM39 ternary complex formation was monitored using AlphaLISA® assays (Perkin Elmer, Waltham, MA). […] 9.8 ul of this protein mixture was then mixed with the compounds in the assay plate and incubated for one hour at room temperature. Reaction mixtures with no compounds added were included as negative controls, while a His-tagged and biotinylated GST protein was included to track general assay performance. […] The beads were then added to the assay plate sequentially with incubation at room temperature for 1-2 hours after each addition.
In the case of `O=S(=O)(F)c1ccc(S(=O)(=O)Nc2ccc(Cl)c3c(Cl)c[nH]c23)cc1` [Compound 72, 4-(N-(3,4-dichloro-1H-indol-7-yl)sulfamoyl)benzenesulfonyl fluoride], the EC50 is < 1000 nM.
The same measure, in the same setting: as for `N#Cc1ccc(CCCN2CCN(S(=O)(=O)c3ccc(S(=O)(=O)Nc4ccc(Cl)c5c(Cl)c[nH]c45)cc3)CC2)cc1` [Compound 50, 4-((4-(3-(4-cyanophenyl)propyl)piperazin-1-yl)sulfonyl)-N-(3,4-dichloro-1H-indol-7-yl)benzenesulfonamide], the figure is < 1000 nM.

Still in this assay, the particulars now being: AlphaLISA, His-tagged DCAF15 complex and biotin-carrying RBM39; read-out: Ternary-RBM39 (RRM2) EC50.
On to `O=S(=O)(Nc1cccc2cc[nH]c12)c1ccc(S(=O)(=O)N2CCNCC2)cc1` [compound 145], for which the concentration for a half-maximal effect (EC50) was < 5000 nM.
Same read-out and setting: the same measure for `Cc1ccc(NS(=O)(=O)c2ccc(S(=O)(=O)N3CC4CNCC4C3)cc2)c2[nH]cc(C#N)c12` (stereo not drawn) [Compound 92, N-(3-cyano-4-methyl-1H-indol-7-yl)-4-((hexahydropyrrolo[3,4-c]pyrrol-2(1H)-yl)sulfonyl)benzenesulfonamide]: < 1000 nM; for `O=S(=O)(Nc1ccc(Cl)c2c(Cl)c[nH]c12)c1cccc(S(=O)(=O)N2CCNCC2)c1` [Compound 41, N-(3,4-dichloro-1H-indol-7-yl)-3-(piperazin-1-ylsulfonyl)benzenesulfonamide]: < 1000 nM.
With `Cc1ccc(NS(=O)(=O)c2ccc(S(=O)(=O)N(C)C3CNC3)cc2)c2[nH]cc(C#N)c12` [Compound 79, N^1-(azetidin-3-yl)-N^4-(3-cyano-4-methyl-1H-indol-7-yl)-N^1-methylbenzene-1,4-disulfonamide], the concentration giving a half-maximal response (EC50) was < 1000 nM.
As to `CCN(CC)C(=O)c1ccc(CNS(=O)(=O)c2ccc(S(=O)(=O)Nc3ccc(Cl)c4c(Cl)c[nH]c34)cc2)cc1` [Compound 12, 4-(((4-(N-(3,4-dichloro-1H-indol-7-yl)sulfamoyl)phenyl)sulfonamido)methyl)-N,N-diethylbenzamid], the EC50 is < 20000 nM.
`Cc1ccc(NS(=O)(=O)c2ccc(S(=O)(=O)N3CCCC(N)C3)cc2)c2[nH]cc(C#N)c12` (stereo not drawn) [Compound 82, 4-((3-aminopiperidin-1-yl)sulfonyl)-N-(3-cyano-4-methyl-1H-indol-7-yl) benzenesulfonamide]: the EC50 was < 1000 nM.
Turning to `CCCN(c1ccc(S(=O)(=O)Nc2ccc(Cl)c3c(Cl)c[nH]c23)cc1)S(=O)(=O)C1CCN(C)CC1` [Compound 62, N-(4-(N-(3,4-dichloro-1H-indol-7-yl)sulfamoyl)phenyl)-1-methyl-N-propylpiperidine-4-sulfonamide], the EC50 was < 1000 nM.
Turning to `CN1CCN(S(=O)(=O)c2ccc(S(=O)(=O)Nc3ccc(Cl)c4c(Cl)c[nH]c34)cc2)CC1` [Compound 48, N-(3,4-dichloro-1H-indol-7-yl)-4-((4-methylpiperazin-1-yl)sulfonyl)benzenesulfonamide], the EC50 is < 1000 nM.
Same read-out and setting: the same measure for `O=S(=O)(NCCc1ccccn1)c1ccc(S(=O)(=O)Nc2ccc(Cl)c3c(Cl)c[nH]c23)cc1` [Compound 26, N^1-(3,4-dichloro-1H-indol-7-yl)-N^4-(2-(pyridin-2-yl)ethyl)benzene-1,4-disulfonamide]: < 5000 nM; for `Cc1ccc(NS(=O)(=O)c2ccc(S(=O)(=O)N3CCOCC3)cc2)c2[nH]cc(C#N)c12` [Compound 90, N-(3-cyano-4-methyl-1H-indol-7-yl)-4-(morpholinosulfonyl)benzene sulfonamide]: < 1000 nM; for `Cc1ccc(NS(=O)(=O)c2ccc(S(=O)(=O)N3CCNCC3)cc2)c2[nH]cc(C#N)c12` [Compound 83, N-(3-cyano-4-methyl-1H-indol-7-yl)-4-(piperazin-1-ylsulfonyl)benzene sulfonamide]: < 1000 nM.
Turning to `Cc1ccc(NS(=O)(=O)c2ccc(S(=O)(=O)N3CCNC(=O)C3)cc2)c2[nH]cc(C#N)c12` [Compound 89, N-(3-cyano-4-methyl-1H-indol-7-yl)-4-((3-oxopiperazin-1-yl)sulfonyl)benzenesulfonamide], the EC50 was < 1000 nM.
The same measure, in the same setting: the same measure for `COc1cc(NS(=O)(=O)c2cccc(C#N)c2)c2[nH]cc(Cl)c2c1` [Compound 103, N-(3-chloro-5-methoxy-1H-indol-7-yl)-3-cyanobenzenesulfonamide]: < 1000 nM; for `CCC1CN(S(=O)(=O)c2ccc(S(=O)(=O)Nc3ccc(C)c4c(C#N)c[nH]c34)cc2)CCN1` (stereo not drawn) [Compound 84, N-(3-cyano-4-methyl-1H-indol-7-yl)-4-((3-ethylpiperazin-1-yl)sulfonyl) benzenesulfonamide]: < 1000 nM; for `O=C(NS(=O)(=O)c1ccc(Br)s1)c1ccc(Cl)cc1Cl` [Tasisulam, tasisulam, reference compound]: < 5000 nM.
For the molecule `O=S(=O)(Nc1ccc(Cl)c2c(Cl)c[nH]c12)c1ccc(S(=O)(=O)NC2CCNCC2)cc1` [Compound 29, N^1-(3,4-dichloro-1H-indol-7-yl)-N^4-(piperidin-4-yl)benzene-1,4-disulfonamide], the EC50 was < 1000 nM.
Still for that read-out and setting: the same measure for `O=S1(=O)CCC(OCCNS(=O)(=O)c2ccc(S(=O)(=O)Nc3ccc(Cl)c4c(Cl)c[nH]c34)cc2)CC1` [Compound 4, N^1-(3,4-dichloro-1H-indol-7-yl)-N4_ (2-((1,1-dioxidotetrahydro-2H-thiopyran-4-yl)oxy)ethyl) benzene-1,4-disulfonamide]: < 1000 nM; for `COCCc1cn(-c2cccc(S(=O)(=O)Nc3ccc(C)c4c(C#N)c[nH]c34)c2)nn1` [Compound 97, N-(3-cyano-4-methyl-1H-indol-7-yl)-3-(4-(2-methoxyethyl)-1H-1,2,3-triazol-1-yl)benzenesulfonamide]: < 1000 nM.
Consider `O=S(=O)(NCCOCC1CC1)c1ccc(S(=O)(=O)Nc2ccc(Cl)c3c(Cl)c[nH]c23)cc1` [Compound 6, N^1-(2-(cyclopropylmethoxy)ethyl)-N^4-(3,4-dichloro-1H-indol-7-yl)benzene-1,4-disulfonamide], for which the EC50 was < 5000 nM.
On the same count and under the same terms, the same measure for `O=S(=O)(Nc1ccc(Cl)c2c(Cl)c[nH]c12)c1ccc(S(=O)(=O)NC2CCc3ccccc32)cc1` (stereo not drawn) [Compound 34, N^1-(3,4-dichloro-1H-indol-7-yl)-N^4-(2,3-dihydro-1H-inden-1-yl)benzene-1,4-disulfonamide]: < 20000 nM; for `O=S(=O)(Nc1ccc(Cl)c2c(Cl)c[nH]c12)c1ccc(Br)cc1` [Compound 75, 4-bromo-N-(3,4-dichloro-1H-indol-7-yl)benzenesulfonamide]: < 5000 nM.
For `CCOC(=O)N1CCN(S(=O)(=O)c2ccc(S(=O)(=O)Nc3ccc(Cl)c4c(Cl)c[nH]c34)cc2)CC1` [Compound 49, ethyl 4-((4-(N-(3,4-dichloro-1H-indol-7-yl)sulfamoyl)phenyl)sulfonyl)piperazine-1-carboxylate], the EC50 is < 5000 nM.
Still for that read-out and setting: the same measure for `O=S(=O)(Nc1ccc(Cl)c2c(Cl)c[nH]c12)c1ccc(S(=O)(=O)N2CCCCC2)cc1` [Compound 37, N-(3,4-dichloro-1H-indol-7-yl)-4-(piperidin-1-ylsulfonyl)benzenesulfonamide]: < 1000 nM.
On to `CC1CNCCN1S(=O)(=O)c1ccc(S(=O)(=O)Nc2ccc(Cl)c3c(Cl)c[nH]c23)cc1` (stereo not drawn) [Compound 46, N-(3,4-dichloro-1H-indol-7-yl)-4-((2-methylpiperazin-1-yl)sulfonyl)benzene sulfonamide], for which the EC50 was < 1000 nM.
In the case of `CCS(=O)(=O)CCNS(=O)(=O)c1ccc(S(=O)(=O)Nc2ccc(Cl)c3c(Cl)c[nH]c23)cc1` [Compound 3, N^1-(3,4-dichloro-1H-indol-7-yl)-N^4-(2-(ethylsulfonyl)ethyl) benzene-1,4-disulfonamide], the EC50 is < 1000 nM.
As to `Cc1ccc(NS(=O)(=O)c2ccc(S(=O)(=O)N3CC4(CNC4)C3)cc2)c2[nH]cc(C#N)c12` [Compound 93, 4-((2,6-diazaspiro[3.3]heptan-2-yl)sulfonyl)-N-(3-cyano-4-methyl-1H-indol-7-yl)benzenesulfonamide], the EC50 was < 1000 nM.
The same measure, in the same setting: as for `O=S(=O)(Nc1ccc(Cl)c2c(Cl)c[nH]c12)c1ccc(NS(=O)(=O)C2CCNCC2)cc1` [Compound 65, N-(4-(N-(3,4-dichloro-1H-indol-7-yl)sulfamoyl)phenyl)piperidine-4-sulfonamide], the figure is < 5000 nM.
As for `C#CCOCCOCCOCC(=O)N(CCC)c1ccc(S(=O)(=O)Nc2ccc(Cl)c3c(Cl)c[nH]c23)cc1` [compound 132], the EC50 is < 5000 nM.
Turning to `COCCN1CCN(S(=O)(=O)c2ccc(S(=O)(=O)Nc3ccc(C)c4c(C#N)c[nH]c34)cc2)CC1` [Compound 85, N-(3-cyano-4-methyl-1H-indol-7-yl)-4-((4-(2-methoxyethyl)piperazin-1-yl)sulfonyl)benzenesulfonamide], the EC50 is < 1000 nM.
The same measure, in the same setting: the same measure for `Cc1ccc(NS(=O)(=O)c2cc(F)cc(C#N)c2)c2[nH]cc(C#N)c12` [Compound 98, 3-cyano-N-(3-cyano-4-methyl-1H-indol-7-yl)-5-fluorobenzenesulfonamide]: < 1000 nM.
